Assays:
[1] = biological target: Transcription initiation factor TFIID subunit 1 (Homo sapiens, UniProt P21675); assay: Displacement of biotinylated probe from human TAF1 bromodomain 2 (1522 to 1656 residues) expressed in Escherichia coli BL21 (DE3) by alphascreen assay
[2] = biological target: Bromodomain-containing protein 4 (Homo sapiens, UniProt O60885); assay: Displacement of Bio-JQ1 from recombinant human His6 tagged BRD4 bromodomain 1 by alphascreen assay

Chain of Transcription initiation factor TFIID subunit 1 (P21675 whole entry, the tested form may be a part): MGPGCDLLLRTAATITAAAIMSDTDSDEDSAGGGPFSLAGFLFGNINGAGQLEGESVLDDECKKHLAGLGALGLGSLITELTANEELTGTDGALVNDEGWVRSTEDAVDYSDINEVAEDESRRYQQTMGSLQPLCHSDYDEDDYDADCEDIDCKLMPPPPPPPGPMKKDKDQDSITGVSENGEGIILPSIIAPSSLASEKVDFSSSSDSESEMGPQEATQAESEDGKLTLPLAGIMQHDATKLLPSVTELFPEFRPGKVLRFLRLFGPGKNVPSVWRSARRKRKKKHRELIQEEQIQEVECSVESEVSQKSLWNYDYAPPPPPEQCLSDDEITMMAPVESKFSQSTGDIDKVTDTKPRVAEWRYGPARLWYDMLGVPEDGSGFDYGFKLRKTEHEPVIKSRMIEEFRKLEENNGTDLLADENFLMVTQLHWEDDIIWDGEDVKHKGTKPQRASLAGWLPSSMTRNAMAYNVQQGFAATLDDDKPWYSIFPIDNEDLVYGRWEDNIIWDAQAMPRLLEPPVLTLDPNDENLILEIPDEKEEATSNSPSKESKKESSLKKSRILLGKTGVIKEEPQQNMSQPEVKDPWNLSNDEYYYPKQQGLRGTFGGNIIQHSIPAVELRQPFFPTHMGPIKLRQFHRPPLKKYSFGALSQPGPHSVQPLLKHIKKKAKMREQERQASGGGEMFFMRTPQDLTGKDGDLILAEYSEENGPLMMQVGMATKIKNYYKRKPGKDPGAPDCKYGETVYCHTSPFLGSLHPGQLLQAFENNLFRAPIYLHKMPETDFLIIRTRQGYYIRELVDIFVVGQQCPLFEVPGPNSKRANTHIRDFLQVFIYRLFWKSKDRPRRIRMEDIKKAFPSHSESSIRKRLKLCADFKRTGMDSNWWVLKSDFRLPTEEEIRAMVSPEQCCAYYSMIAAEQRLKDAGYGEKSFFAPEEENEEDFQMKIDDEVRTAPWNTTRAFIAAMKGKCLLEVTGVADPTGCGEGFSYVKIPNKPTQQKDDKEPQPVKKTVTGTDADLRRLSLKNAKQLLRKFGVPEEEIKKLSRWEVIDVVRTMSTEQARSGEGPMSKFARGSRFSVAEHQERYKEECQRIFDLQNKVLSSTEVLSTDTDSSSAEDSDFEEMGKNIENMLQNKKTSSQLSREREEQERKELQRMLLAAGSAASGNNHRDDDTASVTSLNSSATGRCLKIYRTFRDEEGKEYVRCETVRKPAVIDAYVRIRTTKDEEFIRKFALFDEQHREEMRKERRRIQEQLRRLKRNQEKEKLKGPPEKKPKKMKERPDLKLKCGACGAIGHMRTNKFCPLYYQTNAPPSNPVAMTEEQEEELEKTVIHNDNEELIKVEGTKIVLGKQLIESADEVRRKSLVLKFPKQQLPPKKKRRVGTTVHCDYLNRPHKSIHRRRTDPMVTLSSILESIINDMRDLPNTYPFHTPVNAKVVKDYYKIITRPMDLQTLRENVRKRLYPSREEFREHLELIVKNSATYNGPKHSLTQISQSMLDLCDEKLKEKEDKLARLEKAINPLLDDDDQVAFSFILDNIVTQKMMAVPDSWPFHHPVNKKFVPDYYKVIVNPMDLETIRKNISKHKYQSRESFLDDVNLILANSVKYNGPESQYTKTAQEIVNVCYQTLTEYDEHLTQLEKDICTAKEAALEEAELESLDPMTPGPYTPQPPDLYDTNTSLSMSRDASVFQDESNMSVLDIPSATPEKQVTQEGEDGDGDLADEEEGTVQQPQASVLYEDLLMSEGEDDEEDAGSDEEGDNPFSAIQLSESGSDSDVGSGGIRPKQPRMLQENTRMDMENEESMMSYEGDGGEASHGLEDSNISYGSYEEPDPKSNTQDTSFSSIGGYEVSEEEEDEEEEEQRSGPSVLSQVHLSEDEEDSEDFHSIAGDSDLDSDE

SMILES | IC50 [1] [nM] | IC50 [2] [nM]
COc1cc(C(=O)N2CCC(O)CC2)ccc1Nc1ccc2c(n1)N(C1CCCCCC1)[C@H](C)C(=O)N2C | 240 | 220
CC[C@@H]1C(=O)N(CC)c2cnc(Nc3ccc(C(=O)NC4CCN(C)CC4)cc3OC)nc2N1C1CCCC1 | 410 | 690
COc1cc(C(=O)NC2CCN(C)CC2)ccc1Nc1ccc2c(n1)N(C1CCOCC1)[C@H](C)C(=O)N2C | < 10 | 49
CC[C@@H]1C(=O)N(C)c2ccc(Nc3ccc(C(=O)NC4CCN(C)CC4)cc3OC)nc2N1C1CCCC1 | 450 | 150
CC[C@@H]1C(=O)N(C)c2cnc(Nc3ccc(C(=O)NC4CCN(C)CC4)cc3OC3CCC3)nc2N1C1CCCC1 | 110 | 62
CC[C@@H]1C(=O)N(C)c2cnc(Oc3ccc(C(=O)NC4CCN(C)CC4)cc3OC)nc2N1C1CCCC1 | > 10000 | 620
COc1cc(C(=O)N2CCC(O)CC2)ccc1Nc1ccc2c(n1)N(Cc1ccccc1)[C@H](C)C(=O)N2C | 720 | 240
CC(C)Oc1cc(C(=O)NC2CCN(C)CC2)ccc1Nc1ccc2c(n1)N(C1CCCC1)[C@H](C)C(=O)N2C | 89 | 130
COc1cc(C(=O)N2CCC(O)CC2)ccc1Nc1ccc2c(c1)N(C1CCCC1)[C@H](C)C(=O)N2C | 580 | 110
CC[C@@H]1C(=O)Nc2cnc(Nc3ccc(C(=O)NC4CCN(C)CC4)cc3OC)nc2N1C1CCCC1 | > 10000 | > 10000
C[C@@H]1C(=O)N(C)c2ccc(Nc3ccc(C(=O)NC4CCN(C)CC4)cc3OC3CCCC3)nc2N1C1CCCC1 | 31 | 48
CC[C@@H]1C(=O)N(C)c2cnc(Nc3ccc(C(=O)NC4CCN(C)CC4)cc3OC3CCCC3)nc2N1C1CCCC1 | 100 | 33
COc1cc(C(=O)N2CCC(O)CC2)ccc1Nc1ccc2c(c1C)N(C)[C@H](C)C(=O)N2C | 980 | > 10000
C=CCCN1C(=O)[C@@H](C)N(C2CCOCC2)c2nc(Nc3ccc(C(=O)NC4CCN(C)CC4)cc3OC)ccc21 | 82 | > 10000
COc1cc(C(=O)N2CCC(O)CC2)ccc1Nc1cc2c(cc1F)N(C)C(=O)[C@@H](C)N2C1CCCC1 | 4600 | 680
C[C@@H]1C(=O)N(C)c2ccc(Nc3ccc(C(=O)NC4CCN(C)CC4)cc3)nc2N1C1CCCC1 | 340 | 190

SMILES | IC50 [1] [nM] | IC50 [2] [nM]
C=CCCN1C(=O)[C@@H](C)N(C2CCCC2)c2nc(Nc3ccc(C(=O)N4CCC(O)CC4)cc3OC)ccc21 | 570 | 4400
C[C@@H]1C(=O)N(C)c2cnc(Nc3ccc(C(=O)NC4CCN(C)CC4)cc3)nc2N1C1CCCC1 | 87 | 68
COc1cc(C(=O)N2CCC(O)CC2)ccc1Nc1ccc2c(n1)N1CCCC[C@@H]1C(=O)N2C | 210 | 7200
CC[C@@H]1C(=O)N(C)c2cnc(Nc3ccc(C(=O)NC4CCN(C)CC4)cc3OC(C)C)nc2N1C1CCCC1 | 210 | 63
CC[C@@H]1C(=O)N(C)c2cnc(Nc3ccc(C(=O)NC4CCN(C)CC4)cc3)nc2N1C1CCCC1 | 150 | 280
CC(C)Oc1cc(C(=O)NC2CCN(C)CC2)ccc1Nc1ncc2c(n1)N(C1CCCC1)[C@H](C)C(=O)N2C | 320 | 220
COc1cc(C(=O)NC2CCN(C)CC2)ccc1Nc1ccc2c(n1)N1CCCC[C@@H]1C(=O)N2C | 63 | 2700
COc1cc(C(=O)N2CCC(O)CC2)ccc1Nc1ccc2c(n1)N(C1CCOCC1)[C@H](C)C(=O)N2C | 38 | 140
COc1cc(C(=O)N2CCC(O)CC2)ccc1Nc1ccc2c(n1)N(C1CCCC1)[C@H](C)C(=O)N2C | 93 | 47
COc1cc(C(=O)N2CCC(O)CC2)ccc1Nc1cc2c(cc1OC)N(C)C(=O)[C@@H](C)N2C1CCCC1 | 750 | 7300
COc1cc(C(=O)N2CCC(O)CC2)ccc1Nc1ccc2c(n1)N(C1CCCCC1)[C@H](C)C(=O)N2C | 72 | 150
COc1cc(C(=O)NC2CCN(C)CC2)ccc1Nc1ccc2c(n1)N(C1CCCC1)[C@H](C)C(=O)N2C | 16 | 37
CC[C@@H]1C(=O)N(C)c2cnc(N(C)c3ccc(C(=O)NC4CCN(C)CC4)cc3OC)nc2N1C1CCCC1 | > 10000 | 100
C=CCN1C(=O)[C@@H](C)N(C2CCCC2)c2nc(Nc3ccc(C(=O)N4CCC(O)CC4)cc3OC)ccc21 | 1700 | 4500
COc1cc(C(=O)N2CCC(O)CC2)ccc1Nc1cc2c(cc1C)N(C)C(=O)[C@@H](C)N2C1CCCC1 | > 10000 | 2100
COc1cc(C(=O)N2CCC(O)CC2)ccc1Nc1ccc2c(n1)N(C1CCC(C)(C)C1)[C@H](C)C(=O)N2C (mixture of isomers) | 300 | 140
